Consider two molecules from PMC7876106 (Scientific Reports, 2021).

Usually EC50 stands for the concentration that produces a half-maximal response. A higher EC50 goes with a less potent agent.

The structures appear in SMILES notation.

The subject of one assay is LOX cells. Nature of the assay: TIF assay (IF FISH, γH2AX or 53BP1 with telomere DNA) in LOX cells. Type of assay: cell-based, human. As to conditions: 2 μM, 3 days. On the procedure:
Mei et al, 2020 TERRA Requires TRF2 GAR Domain […]
Indirect immunofluorescence (IF) combined with fluorescence in situ hybridization (FISH) analysis for telomere dysfunction was performed as described 4 with some modifications. Briefly, cells grown on coverslips were fixed for 15 min in 2% paraformaldehyde/1x PBS at RT, followed by permeabilization for 10 min in 1x PBS/0.5% Triton X-100 at RT. After washing with 1x PBS, cells were incubated for 60 min in blocking solution (0.5% BSA, 0.2% fish gelatin, 0.1% Triton X-100, 1 mM EDTA in 1x PBS) before immuno-staining. Primary antibodies were prepared in blocking solution at following dilutions: anti-53BP1 (1:500, IHC-00001; Bethyl Laboratories) and γH2AX (1:2,000, A300-081A; Bethyl Laboratories). After IF, cells were fixed in 4% paraformaldehyde in 1x PBS for 10 min, washed in 1x PBS, dehydrated in ethanol series (70%, 95%, 100%), and air-dried. Coverslips were denatured for 5 min at 80-85° C in hybridization mix [70% formamide, 10 mM Tris-HCl, pH 7.2, and 0.5% blocking solution (Roche)] containing telomeric PNA-Cy3-(CCCTAA)3 probe, and hybridization was continued for 2 hrs at room temperature in the dark moisturized chambers. Coverslips were washed twice for 15 min each with 70% formamide, 10 mM Tris-HCl (pH 7.2), and 0.1% BSA, and followed by three washes for 5 min each with 0.15 M NaCl, 0.1 M Tris-HCl (pH 7.2), and 0.08% Tween-20. Nuclei were counterstained with 0.1 µg/ml DAPI in blocking solution and coverslips mounted with VectorShield (Vector Laboratories). RNA FISH was performed as previously described 1.
Images were captured with a 100x lens on a Nikon E600 Upright microscope (Nikon […]
Instruments, Inc., Melville, NY) with ImagePro Plus software (Media Cybernetics, Silver Spring, MD) for image processing. Cells with > 5 53BP1/γH2AX foci co-localizing with telomere DNA foci were scored as positive for TIF. The quantification was generated from at least three independent Immuno-FISH experiments. […]
0.1 μg/mL DAPI in 1x PBS and slides were mounted with VectorShield (Vector Laboratories).
Images were taken with a 100x lens on a Nikon E600 Upright microscope (Nikon Instruments) using ImagePro Plus software (Media Cybernetics) for image processing. Statistical analysis was performed using two-tailed Student t Test.

For a further assay, the target named is EBNA1 G4 RNA. Nature of the assay: FP assay, compound binding to EBNA1 G4 RNA. On the procedure: All the nucleic acids, peptides and chemicals were dissolved in buffer containing 20 mM HEPES pH7.5, 150 mM salt (KCl, NaCl, LiCl) at the stock concentration of 1 mM. For peptide and nucleic acid interactions, 25μL of each nucleic acids with a sequential twofold dilutions starting from 50 μM was added into each well of 96-well plate followed by adding 25μL of 10 nM FITC labeled TRF2 peptide. For compounds and nucleic acid interactions, 20μL of each compounds with a sequential twofold dilutions starting from 50 μM were added into each well of 96-well plate followed by adding 5μL of 20 ng/mL tRNA and 25μL of 10 nM FAM labeled nucleic acids. For inhibition assay, 5μL FITC labeled TRF2 GAR peptide (10 nM final concentration) and 10 μL oligos (5 μM final concentration) were mixed, followed by adding 5μL of each compound with a sequential twofold dilutions starting from 50 μM into each well of 384-well plate. All components were mixed thoroughly, and the plate was incubated at room temperature for 1 h before placing in an Envision Plate Reader for reading at 495/520 nm. All data curves were fitted using Prism 8.0.

The next assay deals with TERRA in U2OS cells. Nature of the assay: TERRA levels by RNA dot blot in U2OS cells. Type of assay: cell-based. The following applies: ALT positive U2OS cells, 2 μM, 2 days. As to the method: LOX human melanoma cells[74],[101] were grown in complete RPMI (high glucose RPMI supplemented with 10% heat inactivated FBS, 100 I.U./mL Penicillin, and 100 μg/mL Streptomycin (Corning)). LOX cells inducibly expressing TRF2∆B protein were generated by lentiviral transduction. Cells were infected with lentiviral particles containing pInducer10L and pIND-MYC-TRF2∆B, and single cell clonal colonies were selected in 1 µg/mL puromycin. N-terminally Myc-tagged TRF2∆B protein was expressed in stable lines by induction with 1 µg/ml doxycycline at indicated days. Due to the instability of doxycycline in the culture, the culture medium will be replaced with fresh doxycycline every 2 days. […]
Homogenous Time Resolved Fluorescence (HTRF) assay
All material including peptide, nucleic acids and compounds were dissolved in buffer containing 20mM HEPES pH7.5 150mM KCl. […] The plate was incubated at room temperature for 30 minutes, following by adding 5µL of streptavidin-Tb-cryptate (Cisbio, PerkinElmer) and the plate was then incubated at room temperature for another 30 minutes before measured by EnVision plate reader (330/520 nm). […] The curves were analyzed using Prism 8.0. […]
Total RNA was isolated as previously described by using TRIzol reagent (Invitrogen) 1. […] RNA concentration was determined by Nanodrop-2000 (ThermoFisher). […]

`CN(C)c1ccc(Nc2c3ccc(NC(=O)CCN4CCCC4)cc3nc3cc(NC(=O)CCN4CCCC4)ccc23)cc1` [BRACO-19]: in the assay on LOX cells, the “increase in telomere-associated γH2AX compared to PP treatment” value was “~ three fold increase” and the “level of γH2AX or 53BP1 associated telomere dysfunction-induced foci (TIFs)” value was “moderate level”. Also, at EBNA1 G4 RNA, a half-maximal response (EC50) required 227 nM and the “binding to EBNA1 G4 RNA” value was “high binding affinity”. In the assay on TERRA in U2OS cells, the “TERRA levels in U2OS cells” value was “reduced TERRA levels”.
Take `CCc1c(C)c2cc3nc(cc4nc(cc5c(CC)c(C)c(cc1[nH]2)n5C)C(C)=C4CCC(=O)O)C(CCC(=O)O)=C3C` [NMM, N-methyl mesoporphyrin IX]: in the assay with LOX cells, the “increase in telomere-associated γH2AX compared to PP treatment” value is reported as “~ fivefold increase” and the “level of γH2AX or 53BP1 associated telomere dysfunction-induced foci (TIFs)” value is “high level”. Besides, the “binding to EBNA1 G4 RNA” value with EBNA1 G4 RNA was “did not display any binding”. In addition, in the assay with TERRA in U2OS cells, the “TERRA levels in U2OS cells” value is recorded as “reduced TERRA levels”.
